Reference: US11771738B2 (Zoetis Services LLC, priority 2018, dated 2023)
Like-named read-outs stand apart in the source and are kept apart here.

Key:
Type in all cases: cell-based
D. immitis L4 larvae = test: Dirofilaria immitis, L4 Stage (DiL4) In Vitro Assay; conditions: for minimal effective concentration: Dirofilaria immitis, 72 h, read-out: DiL4 MED, Minimum Effective Dose, D. immitis L4 larvae motility, in vitro; for DiMf/DiL4: larval stage selectivity, ratio of DiMf MED to DiL4 MED
[1] = system: third stage larvae of Haemonchus contortus; test: Haemonchus contortus, Larvae Stage 3 (HcL3) In Vitro Assay; conditions: Haemonchus contortus, 96 h
[2] = system: microfilariae of Dirofilaria immitis; test: Dirofilaria immitis, Microfilaria (DiMf) In Vitro Assay; conditions: Dirofilaria immitis, 72 h, read-out: DiMf MED, Minimum Effective Dose, D. immitis microfilariae motility, in vitro
[3] = read-out: HcL3 MED, Minimum Effective Dose, H. contortus third stage larvae, approximately 96 hours
[4] = read-out: HcL3 MED, Haemonchus contortus third stage larvae in vitro, class mark appended to the Ex # in Table 3
[5] = read-out: HcL3 MED, approximately 96 hours incubation, multiple-resistant field isolate

Which results are given for COc1ccsc1Cc1ccc(C[C@H]2OC(=O)[C@H](CC(C)C)N(C)C(=O)[C@@H](C)OC(=O)[C@H](CC(C)C)N(C)C(=O)[C@@H](Cc3ccc(Cc4sccc4OC)cc3)OC(=O)[C@H](CC(C)C)N(C)C(=O)[C@@H](C)OC(=O)[C@H](CC(C)C)N(C)C2=O)cc1 [Example 3-110, (3S,6R,9S,12R,15S,18R,21S,24R)-3,9,15,21-tetraisobutyl-6,18-bis(4-((3-methoxythiophen-2-yl)methyl)benzyl)-4,10,12,16,22,24-hexamethyl-1,7,13,19-tetraoxa-4,10,16,22-tetraazacyclotetracosan-2,5,8,11,14,17,20,23-octaone]?
minimal effective concentration (D. immitis L4 larvae): 0.0001 µM; DiMf/DiL4 (D. immitis L4 larvae): 300; minimal effective concentration [1, 3]: > 100 µM; minimal effective concentration [2]: 0.03 µM

With CC(C)C[C@H]1C(=O)O[C@H](Cc2ccc(Cc3scnc3Cl)cc2)C(=O)N(C)[C@@H](CC(C)C)C(=O)O[C@H](C)C(=O)N(C)[C@@H](CC(C)C)C(=O)O[C@H](Cc2ccc(Cc3scnc3Cl)cc2)C(=O)N(C)[C@@H](CC(C)C)C(=O)O[C@H](C)C(=O)N1C [Example 3-112, (3S,6R,9S,12R,15S,18R,21S,24R)-6,18-bis(4-((4-chlorothiazol-5-yl)methyl)benzyl)-3,9,15,21-tetraisobutyl-4,10,12,16,22,24-hexamethyl-1,7,13,19-tetraoxa-4,10,16,22-tetraazacyclotetracosan-2,5,8,11,14,17,20,23-octaone] as the molecule, how does the minimal effective concentration (D. immitis L4 larvae) read?
Its minimal effective concentration is 3e-05 µM.

What about the DiMf/DiL4 (D. immitis L4 larvae) of the same molecule?
The DiMf/DiL4 was 33.3.

What about the minimal effective concentration [1, 4] of the same molecule?
Its minimal effective concentration is under 1 µM.

And the minimal effective concentration [1, 3]?
Its minimal effective concentration is 1 µM.

And the minimal effective concentration [1, 5]?
The minimal effective concentration was at most 1 µM.

What about the minimal effective concentration [2] of the same molecule?
Its minimal effective concentration is 0.001 µM.

COc1ncc(Cc2ccc(C[C@H]3OC(=O)[C@H](CC(C)C)N(C)C(=O)[C@@H](C)OC(=O)[C@H](CC(C)C)N(C)C(=O)[C@@H](Cc4ccc(Cc5cnc(OC)c(F)c5)cc4)OC(=O)[C@H](CC(C)C)N(C)C(=O)[C@@H](C)OC(=O)[C@H](CC(C)C)N(C)C3=O)cc2)cc1F [Example 3-118, (3S,6R,9S,12R,15S,18R,21S,24R)-6,18-bis(4-((5-fluoro-6-methoxypyridin-3-yl)methyl)benzyl)-3,9,15,21-tetraisobutyl-4,10,12,16,22,24-hexamethyl-1,7,13,19-tetraoxa-4,10,16,22-tetraazacyclotetracosan-2,5,8,11,14,17,20,23-octaone] was tested. Which minimal effective concentration (D. immitis L4 larvae) did it give?
Its minimal effective concentration is 0.001 µM.

And the DiMf/DiL4 (D. immitis L4 larvae)?
The DiMf/DiL4 was 100.

What about the minimal effective concentration [1, 3] of the same molecule?
Its minimal effective concentration is over 100 µM.

And the minimal effective concentration [2]?
Its minimal effective concentration is 0.1 µM.

For Cc1nnsc1Cc1ccc(C[C@H]2OC(=O)[C@H](CC(C)C)N(C)C(=O)[C@@H](C)OC(=O)[C@H](CC(C)C)N(C)C(=O)[C@@H](Cc3ccc(Cc4snnc4C)cc3)OC(=O)[C@H](CC(C)C)N(C)C(=O)[C@@H](C)OC(=O)[C@H](CC(C)C)N(C)C2=O)cc1 [Example 3-120, (3S,6R,9S,12R,15S,18R,21S,24R)-3,9,15,21-tetraisobutyl-4,6,10,16,18,22-hexamethyl-12,24-bis(4-((4-methyl-1,2,3-thiadiazol-5-yl)methyl)benzyl)-1,7,13,19-tetraoxa-4,10,16,22-tetraazacyclotetracosan-2,5,8,11,14,17,20,23-octaone], which minimal effective concentration (D. immitis L4 larvae) is on record?
Its minimal effective concentration is 0.0001 µM.

What about the DiMf/DiL4 (D. immitis L4 larvae) of the same molecule?
The DiMf/DiL4 was 4.

What about the minimal effective concentration [1, 4] of the same molecule?
The minimal effective concentration was under 1 µM.

And the minimal effective concentration [1, 3]?
The minimal effective concentration was 1 µM.

And the minimal effective concentration [1, 5]?
Its minimal effective concentration is at most 1 µM.

And the minimal effective concentration [2]?
Its minimal effective concentration is 0.0004 µM.

What does the source list for COc1ccc(Cc2ccc(C[C@H]3OC(=O)[C@H](CC(C)C)N(C)C(=O)[C@@H](C)OC(=O)[C@H](CC(C)C)N(C)C(=O)[C@@H](Cc4ccc(Cc5ccc(OC)nc5C)cc4)OC(=O)[C@H](CC(C)C)N(C)C(=O)[C@@H](C)OC(=O)[C@H](CC(C)C)N(C)C3=O)cc2)c(C)n1 [Example 3-121, (3S,6R,9S,12R,15S,18R,21S,24R)-3,9,15,21-tetraisobutyl-6,18-bis(4-((6-methoxy-2-methylpyridin-3-yl)methyl)benzyl)-4,10,12,16,22,24-hexamethyl-1,7,13,19-tetraoxa-4,10,16,22-tetraazacyclotetracosan-2,5,8,11,14,17,20,23-octaone]?
minimal effective concentration (D. immitis L4 larvae): 5e-05 µM; DiMf/DiL4 (D. immitis L4 larvae): 60; minimal effective concentration [1, 4]: 1 to 3.3 µM; minimal effective concentration [1, 3]: 1.8 µM; minimal effective concentration [2]: 0.003 µM

For Cc1csc(Cc2ccc(C[C@H]3OC(=O)[C@H](CC(C)C)N(C)C(=O)[C@@H](C)OC(=O)[C@H](CC(C)C)N(C)C(=O)[C@@H](Cc4ccc(Cc5cc(C)cs5)cc4)OC(=O)[C@H](CC(C)C)N(C)C(=O)[C@@H](C)OC(=O)[C@H](CC(C)C)N(C)C3=O)cc2)c1 [Example 3-124, (3S,6R,9S,12R,15S,18R,21S,24R)-3,9,15,21-tetraisobutyl-4,6,10,16,18,22-hexamethyl-12,24-bis(4-((4-methylthiophen-2-yl)methyl)benzyl)-1,7,13,19-tetraoxa-4,10,16,22-tetraazacyclotetracosan-2,5,8,11,14,17,20,23-octaone], which minimal effective concentration (D. immitis L4 larvae) is on record?
The minimal effective concentration was 0.001 µM.

And the DiMf/DiL4 (D. immitis L4 larvae)?
The DiMf/DiL4 was 100.

What about the minimal effective concentration [1, 4] of the same molecule?
Its minimal effective concentration is under 1 µM.

What about the minimal effective concentration [1, 3] of the same molecule?
Its minimal effective concentration is 0.3 µM.

And the minimal effective concentration [1, 5]?
Its minimal effective concentration is at most 1 µM.

And the minimal effective concentration [2]?
The minimal effective concentration was 0.1 µM.

What does the source list for CC(C)C[C@H]1C(=O)O[C@H](Cc2ccc(Cc3sccc3Br)cc2)C(=O)N(C)[C@@H](CC(C)C)C(=O)O[C@H](C)C(=O)N(C)[C@@H](CC(C)C)C(=O)O[C@H](Cc2ccc(Cc3sccc3Br)cc2)C(=O)N(C)[C@@H](CC(C)C)C(=O)O[C@H](C)C(=O)N1C [Example 3-125, (3S,6R,9S,12R,15S,18R,21S,24R)-6,18-bis(4-((3-bromothiophen-2-yl)methyl)benzyl)-3,9,15,21-tetraisobutyl-4,10,12,16,22,24-hexamethyl-1,7,13,19-tetraoxa-4,10,16,22-tetraazacyclotetracosan-2,5,8,11,14,17,20,23-octaone]?
minimal effective concentration (D. immitis L4 larvae): < 0.0002 µM; DiMf/DiL4 (D. immitis L4 larvae): >150; minimal effective concentration [1, 3]: > 100 µM; minimal effective concentration [2]: 0.03 µM

What does the source list for CC(C)C[C@H]1C(=O)O[C@H](Cc2ccc([C@H](O)c3sccc3Br)cc2)C(=O)N(C)[C@@H](CC(C)C)C(=O)O[C@H](C)C(=O)N(C)[C@@H](CC(C)C)C(=O)O[C@H](Cc2ccc([C@@H](O)c3sccc3Br)cc2)C(=O)N(C)[C@@H](CC(C)C)C(=O)O[C@H](C)C(=O)N1C [Example 3-132, (3S,6R,9S,12R,15S,18R,21S,24R)-6-(4-((R)-(3-bromothiophen-2-yl)(hydroxy)methyl)benzyl)-18-(4-((S)-(3-bromothiophen-2-yl)(hydroxy)methyl)benzyl)-3,9,15,21-tetraisobutyl-4,10,12,16,22,24-hexamethyl-1,7,13,19-tetraoxa-4,10,16,22-tetraazacyclotetracosan-2,5,8,11,14,17,20,23-octaone]?
minimal effective concentration (D. immitis L4 larvae): 0.0004 µM; DiMf/DiL4 (D. immitis L4 larvae): 25; minimal effective concentration [1, 3]: > 10 µM; minimal effective concentration [2]: 0.01 µM

Which results are given for COc1cc(C)c(Cc2ccc(C[C@H]3OC(=O)[C@H](CC(C)C)N(C)C(=O)[C@@H](C)OC(=O)[C@H](CC(C)C)N(C)C(=O)[C@@H](Cc4ccc(Cc5cnc(OC)cc5C)cc4)OC(=O)[C@H](CC(C)C)N(C)C(=O)[C@@H](C)OC(=O)[C@H](CC(C)C)N(C)C3=O)cc2)cn1 [Example 3-133, (3S,6R,9S,12R,15S,18R,21S,24R)-3,9,15,21-tetraisobutyl-6,18-bis(4-((6-methoxy-4-methylpyridin-3-yl)methyl)benzyl)-4,10,12,16,22,24-hexamethyl-1,7,13,19-tetraoxa-4,10,16,22-tetraazacyclotetracosan-2,5,8,11,14,17,20,23-octaone]?
minimal effective concentration (D. immitis L4 larvae): 0.0003 µM; DiMf/DiL4 (D. immitis L4 larvae): 66.7; minimal effective concentration [1, 3]: 57 µM; minimal effective concentration [2]: 0.02 µM
